Test results: PMC2785468, “Androgen Receptor Mutations Associated with Androgen Insensitivity Syndrome: A High Content Analysis Approach Leading to Personalized Medicine” (PLoS ONE, 2009)
Positions count from the first letter of the chain named.

Legend:
Format in all cases: cell-based
AR-R840C = target: T1, AR-R840C (Homo sapiens, UniProt P10275, R841C)
T1 construct: segments AR 624-919 (wild type or containing mutations F764L, R840C, and P766S); expressed in transfected cells; host or cells: HeLa, transient co-transfection
T1 sequence (P10275 624-919 R841C): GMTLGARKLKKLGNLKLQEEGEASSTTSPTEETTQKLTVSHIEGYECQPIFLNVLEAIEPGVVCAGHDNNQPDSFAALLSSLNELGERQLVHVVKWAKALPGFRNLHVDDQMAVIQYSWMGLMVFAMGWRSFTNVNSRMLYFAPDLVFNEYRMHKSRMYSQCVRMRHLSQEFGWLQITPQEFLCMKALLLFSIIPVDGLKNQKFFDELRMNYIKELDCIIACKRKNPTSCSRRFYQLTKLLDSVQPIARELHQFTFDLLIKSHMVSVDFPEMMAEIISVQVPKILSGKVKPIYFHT
T1 sequence (P10275 1-660 partner limits assumed): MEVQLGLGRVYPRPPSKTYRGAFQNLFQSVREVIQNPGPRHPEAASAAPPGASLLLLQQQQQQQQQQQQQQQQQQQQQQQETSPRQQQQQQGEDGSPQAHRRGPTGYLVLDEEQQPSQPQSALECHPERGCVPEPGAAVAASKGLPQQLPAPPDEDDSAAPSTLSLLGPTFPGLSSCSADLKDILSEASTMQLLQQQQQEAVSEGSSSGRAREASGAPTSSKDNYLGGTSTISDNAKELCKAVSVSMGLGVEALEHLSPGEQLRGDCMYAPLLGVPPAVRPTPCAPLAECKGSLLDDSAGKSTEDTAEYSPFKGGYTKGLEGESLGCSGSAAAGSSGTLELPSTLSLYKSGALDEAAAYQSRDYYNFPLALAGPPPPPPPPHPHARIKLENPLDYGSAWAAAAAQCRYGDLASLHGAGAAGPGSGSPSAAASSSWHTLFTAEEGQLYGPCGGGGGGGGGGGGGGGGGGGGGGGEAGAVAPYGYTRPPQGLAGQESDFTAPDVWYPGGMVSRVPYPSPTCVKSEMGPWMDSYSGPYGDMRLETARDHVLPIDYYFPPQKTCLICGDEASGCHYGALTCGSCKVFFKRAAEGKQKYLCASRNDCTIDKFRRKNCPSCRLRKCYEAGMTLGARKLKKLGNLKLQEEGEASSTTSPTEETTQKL
Protocol: (§1) An interaction between COOH terminal AF2 (activation function 2) and NH2 terminal sequence F^23XXLF^27 is an important step toward the activation of AR [30]. The NC-TDI was measured using the reagents of the CheckMate™/Flexi® Vector Mammalian Two-Hybrid System, Promega (Madison, WI). […] One day before transfection, 1.5×10^6 Hela cells were seeded into a 60 mm dish. […] After 12 hours of transfection, cells were trypsinized and equally seeded into nine wells of a 12 well plate, with one well treated with vehicle and others with various concentration of different ligand. After 24 h of treatment, luciferase activity was assayed with the Promega Dual Glo assay kit, using a luminometer (PerkinElmer). Data represent the average±SD of three independent experiments, are expressed as fold-induction compared with negative control, and represent the units of firefly luciferase corrected for the units of renilla luciferase detected in the same plate.
as §1, with “Figure 3 NH2-COOH-terminal domain” for “An”, “(NC-TDI) assay.” for “between COOH terminal AF2 (activation function 2) and NH2 terminal sequence F^23XXLF^27 is an important step toward the activation of AR [30]. The NC-TDI was measured using the reagents of the CheckMate™/Flexi® Vector Mammalian Two-Hybrid System, Promega (Madison, WI).”, “HeLa” for “Hela”, “c/w” for “compared with”

wild type AR = target: T2, wild type AR (Homo sapiens, UniProt P10275); conditions: ligands at 0.2–200 nM, 24 h
T2 construct: segments AR 624-919 (wild type or containing mutations F764L, R840C, and P766S); expressed in transfected cells; host or cells: HeLa, transient co-transfection
T2 sequence (P10275 624-919): T1 sequence (P10275 624-919 R841C) with C218R
T2 sequence (P10275 1-660 partner limits assumed): T1 sequence (P10275 1-660 partner limits assumed)
Protocol: as §1
as §1, with “Figure 3 NH2-COOH-terminal domain” for “An”, “(NC-TDI) assay.” for “between COOH terminal AF2 (activation function 2) and NH2 terminal sequence F^23XXLF^27 is an important step toward the activation of AR [30]. The NC-TDI was measured using the reagents of the CheckMate™/Flexi® Vector Mammalian Two-Hybrid System, Promega (Madison, WI).”, “HeLa” for “Hela”, “c/w” for “compared with”

AR-P766S = target: T3, AR-P766S (Homo sapiens, UniProt P10275, P767S); conditions: doses of 200 nM, compared with wt AR at 0.2 nM
T3 construct: segments AR 624-919 (wild type or containing mutations F764L, R840C, and P766S); expressed in transfected cells; host or cells: HeLa, transient co-transfection
T3 sequence (P10275 624-919 P767S): T1 sequence (P10275 624-919 R841C) with P144S, C218R
T3 sequence (P10275 1-660 partner limits assumed): T1 sequence (P10275 1-660 partner limits assumed)
Protocol: as §1
as §1, with “Figure 3 NH2-COOH-terminal domain” for “An”, “(NC-TDI) assay.” for “between COOH terminal AF2 (activation function 2) and NH2 terminal sequence F^23XXLF^27 is an important step toward the activation of AR [30]. The NC-TDI was measured using the reagents of the CheckMate™/Flexi® Vector Mammalian Two-Hybrid System, Promega (Madison, WI).”, “HeLa” for “Hela”, “c/w” for “compared with”

AR-F764L = target: T4, AR-F764L (Homo sapiens, UniProt P10275, F765L)
T4 construct: segments AR 624-919 (wild type or containing mutations F764L, R840C, and P766S); expressed in transfected cells; host or cells: HeLa, transient co-transfection
T4 sequence (P10275 624-919 F765L): T1 sequence (P10275 624-919 R841C) with F142L, C218R
T4 sequence (P10275 1-660 partner limits assumed): T1 sequence (P10275 1-660 partner limits assumed)
Protocol: as §1
as §1, with “Figure 3 NH2-COOH-terminal domain” for “An”, “(NC-TDI) assay.” for “between COOH terminal AF2 (activation function 2) and NH2 terminal sequence F^23XXLF^27 is an important step toward the activation of AR [30]. The NC-TDI was measured using the reagents of the CheckMate™/Flexi® Vector Mammalian Two-Hybrid System, Promega (Madison, WI).”, “HeLa” for “Hela”, “c/w” for “compared with”

## C[C@@H]1CC2=CC(=O)CC[C@@H]2[C@H]2CC[C@@]3(C)[C@@H](CC[C@]3(C)O)[C@@H]21 [Mb, Mibolerone]
AR-R840C
  concentration at which the NC-TDI response saturated: 2 nM
Wild type AR
  NC-TDI maximal response (luciferase activity): 7.1 fold increase
AR-P766S
  NC-TDI rescue (in words): rescue the NC-TDI response to the levels observed with wt AR
AR-F764L; at 0.2 nM
  NC-TDI, % of wild type receptor: 10%
AR-F764L; at 200 nM
  NC-TDI response: 3.1 fold
